Experiment [1] concerns the target T1, recombinant human LTA4 hydrolase (Homo sapiens, UniProt P09960).
T1 construct: A human LTA4 hydrolase full-length cDNA clone (NM_000895) was purchased from OriGene Technologies; 6xHis (own knowledge: pDEST17 adds an N-terminal His tag); made in house; host or cells: Escherichia coli BL21-AI
T1 sequence (P09960 1-611): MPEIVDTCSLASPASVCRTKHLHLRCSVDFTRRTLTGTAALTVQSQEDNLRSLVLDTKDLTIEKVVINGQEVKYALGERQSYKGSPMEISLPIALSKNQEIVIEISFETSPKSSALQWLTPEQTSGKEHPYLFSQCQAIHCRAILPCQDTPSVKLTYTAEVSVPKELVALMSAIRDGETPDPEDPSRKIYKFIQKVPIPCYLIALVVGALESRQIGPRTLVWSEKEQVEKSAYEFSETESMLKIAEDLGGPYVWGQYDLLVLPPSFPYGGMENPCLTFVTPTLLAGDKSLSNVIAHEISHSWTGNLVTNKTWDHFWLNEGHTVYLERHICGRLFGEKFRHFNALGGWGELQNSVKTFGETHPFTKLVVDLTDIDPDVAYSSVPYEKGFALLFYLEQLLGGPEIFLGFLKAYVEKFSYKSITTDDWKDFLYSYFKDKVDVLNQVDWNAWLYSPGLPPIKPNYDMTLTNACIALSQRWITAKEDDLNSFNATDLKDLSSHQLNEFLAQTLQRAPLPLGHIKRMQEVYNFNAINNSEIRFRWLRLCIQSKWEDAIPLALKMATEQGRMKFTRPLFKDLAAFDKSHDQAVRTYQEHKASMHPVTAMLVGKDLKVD
Nature of the experiment: In vitro assay testing inhibitory activity against purified recombinant human LTA4 hydrolase. The note with it: 200 nM recombinant enzyme, 2 μM LTA4, 120 sec, LTB4 formed measured by LC-MS/MS. The experiment is classed as biochemical. An excerpt:
(1) In vitro assay testing inhibitory activity against purified recombinant human LTA4 hydroase:
A human LTA4 hydrolase full-length cDNA clone (NM_000895) was purchased from OriGene Technologies (Rockville, Md.). The gene was amplified by polymerase chain reaction and transferred via pDONR201 into the bacterial expression vector pDEST17 by recombination (both plasmids from Invitrogen, Carlsbad, Calif.). The resulting construct was transformed into Escherichia coli BL21-AI (Invitrogen), and expression was induced by chemical induction with arabinose. The recombinant enzyme was purified by chromatography on a FPLC system (Amersham Biosciences, Uppsala, Sweden) using immobilized metal affinity chromatography (Ni-NTA Superflow, Qiagen, Hilden, Germany) and anion exchange chromatography (MonoQ HR 10/10, Amersham Biosciences).
The compounds of the invention were incubated in a series of dilutions with 200 nM of recombinant enzyme in assay buffer (100 mM Tris-HCl, 100 mM NaCl, 5 mg/ml fatty-acid free BSA, 10% DMSO, pH 8.0) for 10 min at room temperature to allow binding between LTA4 hydrolase and the inhibitors. LTA4 was prepared by alkaline hydrolysis of LTA4 methyl ester (Biomol, Plymouth Meeting, Pa., or Cayman Chemicals, Ann Arbor, Mich.). A solution of 10 μg of the ester was dried under a nitrogen stream and redissolved in 60 μl of a solution of 80% aceton and 20% 0.25 M NaOH. After incubation for 40 min at room temperature the resulting approximately 500 μM tock of LTA4 was kept at −80° C. for no more than a few days prior to use.
Immediately before the assay, LTA4 was diluted to a concentration of 10 μM in assay buffer (without DMSO) and added to the reaction mixture to a final concentration of 2 μM to initiate the enzyme reaction. After incubation for 120 sec at room temperature, the reaction was stopped by adding 2 volumes of chilled quenching buffer, containing acetonitril with 1% acetic acid and 225 nM LTB4-d4 (Biomol). The samples were then kept at 4° C. over night to complete protein precipitation and centrifuged for 15 min at 1800 g. LTB4 formed was measured by LC-MS/MS using LTB4-d4 as an internal standard and an external LTB4 standard (Biomol) as reference. Briefly, the analyte was separated from LTB4 isomers formed by spontaneous hydrolysis of LTA4 using isocratic elution (modified protocol from Mueller et al. (1996), J. Biol. Chem. 271, 24345-24348) on a HPLC system (Waters, Milford, Mass.) and analyzed on a tandem quadrupole mass spectrometer (Waters). MRM transitions followed on 2 channels were 335.2>195.3 (LTB4) and 339.2>197.3 (LTB4-d4). Based on the amounts of LTB4 found at each inhibitor concentration, a dose-response curve was fitted to the data and an IC50 value was calculated.

The subject of experiment [2] is ionophore-induced LTB4 production. The note with it: oral administration, rat peritoneum in vivo; cited from earlier work.
The test system is the same in experiment [3]. The note with it: oral administration, mouse blood ex vivo; cited from earlier work.
Experiment [4] deals with spontaneous colitis. The note with it: eight weeks of treatment, primate model; cited from earlier work.

Counter-ions that a name gives are not always drawn. Like-named read-outs stand apart in the source and are kept apart here. A value given as a limit tells only on which side of the number the result lay.

For the molecule `CC#CCOc1ccc(OCCN2CCCCC2)cc1` [Example 6, 1-[2-(4-But-2-ynyloxy-phenoxy)-ethyl]-piperidine], the half-inhibitory concentration (IC50) (commonly the concentration at which inhibition is half-maximal) in experiment [1] was 5 to 20 µM.
Still for that read-out and setting: as for `Brc1ccc(C#CCOc2ccc(OC[C@H]3CCCN3)cc2)cc1` [Example 4, 2-{4-[3-(4-Bromo-phenyl)-prop-2-ynyloxy]-phenoxymethyl}-pyrrolidine hydrochloride], the figure is 5 to 20 µM; as for “(4-{3-[4-(Pyrrolidin-2-ylmethoxy)-phenoxy]-prop-1-ynyl}-phenyl)-methanol [Example 3]”, under 5 µM; as for `C(#Cc1ccccc1)COc1ccc(OC[C@H]2CCCN2)cc1` [Example 2, 2-[4-(3-Phenyl-prop-2-ynyloxy)-phenoxymethyl]-pyrrolidine], under 5 µM.
`CN(CCCOc1ccc(Cc2ccccc2)cc1)CCC(=O)O.Cl` [SC57461]: the “inhibition of ionophore-induced LTB4 production” value in experiment [2] and in experiment [3] was “inhibition” each time. In experiment [4], the colitis symptoms result is reported as “significantly improved”.
As to `C#CCOc1ccc(OC[C@H]2CCCN2)cc1` [Example 1, (R)-2-(4-Prop-2-ynyloxy-phenoxymethyl)-pyrrolidine hydrochloride], the 50% inhibitory concentration (IC50) in experiment [1] fell in the range of 5 to 20 µM.

Values taken from patent publication US7728032B2, “Phenoxymethylalkyne inhibitors of LTA4H for treating inflammation” (deCODE genetics ehf, priority 2006, dated 2010).
